Results reported in patent US4450269A, “Mono-5-substituted-3-chloro-4H-1,2,6-thiadiazin-4-one antifungal agents” (FMC Corporation, priority 1980, dated 1984).
Read-outs that look alike come from different tables or passages of the source.

Tests used:
Sclerotinia fructicola = assay: Mycelial growth test; format: cell-based; settings: Sclerotinia, 72 h, SF, read-out: Percent Fungus Growth Inhibition
Excerpt: | SF = Sclerotinia fructicola

Pyricularia oryzae = format: cell-based; settings: PO, 48 hours

| SMILES | inhibition at 5 ppm (Sclerotinia fructicola) [%] | inhibition at 10 ppm (Sclerotinia fructicola) [%] | inhibition at 20 ppm (Sclerotinia fructicola) [%] | inhibition at 40 ppm (Sclerotinia fructicola) [%] | Spore Germination Rating (Pyricularia oryzae; 1.0 ppm) | Spore Germination Rating (Pyricularia oryzae; 2.5 ppm) | Spore Germination Rating (Pyricularia oryzae; 10 ppm) | Spore Germination Rating (Pyricularia oryzae; 40 ppm) |
| --- | --- | --- | --- | --- | --- | --- | --- | --- |
| O=C(O)c1ccc(Oc2nsnc(Cl)c2=O)cc1 [Compound 50, 3-(4-carboxyphenoxy)-5-chloro-4H--1,2,6-thiadiazin-4-one] | 59 | 47 | 94 | 100 | 4 (80-100) | 4 (80-100) | 4 (80-100) | 0 (0-10) |
| COc1ccc(Cl)c(Oc2nsnc(Cl)c2=O)c1 [Compound 51, 3-chloro-5-[(2-chloro-5-methoxy)phenoxy]-4H--1,2,6-thiadiazin-4-one] | 69 | 92 | 92 | 100 | 3 (60-80) | 0 (0-10) | 0 (0-10) | 0 (0-10) |
| COc1cc(Cl)cc(Oc2nsnc(Cl)c2=O)c1 [Compound 52, 3-chloro-5-[(3-chloro-5-methoxy)phenoxy]-4H--1,2,6-thiadiazin-4-one] | 65 | 81 | 100 | 100 | 4 (80-100) | 0 (0-10) | 0 (0-10) | 0 (0-10) |
| O=c1c(Cl)nsnc1Oc1ccc([N+](=O)[O-])cc1Cl [Compound 53, 3-chloro-5-(2-chloro-4-nitrophenoxy)-4H--1,2,6-thiadiazin-4-one] | 63 | 89 | 100 | 100 | 2 (40-60) | 0 (0-10) | 0 (0-10) | 0 (0-10) |
| Cc1cc(Oc2nsnc(Cl)c2=O)ccc1Cl [Compound 54, 3-chloro-5-(4-chloro-3-methylphenoxy)-4H--1,2,6-thiadiazin-4-one] | 49 | 50 | 53 | 64 | 0 (0-10) | 0 (0-10) | 0 (0-10) | 0 (0-10) |
| Cc1cc(Cl)ccc1Oc1nsnc(Cl)c1=O [Compound 55, 3-chloro-5-(4-chloro-2-methylphenoxy)-4H--1,2,6-thiadiazin-4-one] | 42 | 50 | 56 | 61 | 1 (10-40) | 0 (0-10) | 0 (0-10) | 0 (0-10) |
| Cc1ccc(Oc2nsnc(Cl)c2=O)c(Br)c1 [Compound 57, 3-[(2-bromo-4-methyl)-phenoxy]-5-chloro-4H--1,2,6-thiadiazin-4-one] | 68 | 82 | 100 | 100 | 0 (0-10) | 2 (40-60) | 0 (0-10) | 0 (0-10) |
| Cc1cc(Cl)c(Oc2nsnc(Cl)c2=O)cc1C [Compound 58, 3-chloro-5-[(2-chloro-4,5-dimethyl)phenoxy]-4H--1,2,6-thiadiazin-4-one] | 56 | 65 | 68 | 71 | 4 (80-100) | 0 (0-10) | 0 (0-10) | 0 (0-10) |
| Cc1cc(Oc2nsnc(Cl)c2=O)cc(C)c1Cl [Compound 59, 3-chloro-5-[(4-chloro-3,5-dimethyl)phenoxy]-4H--1,2,6-thiadiazin-4-one] | 71 | 68 | 59 | 74 | 0 (0-10) | 0 (0-10) | 0 (0-10) | 0 (0-10) |
| Cc1cc(Oc2nsnc(Cl)c2=O)cc(C)c1Br [Compound 60, 3-[(4-bromo-3,5-dimethyl)-phenoxy]-5-chloro-4H--1,2,6-thiadiazin-4-one] | 56 | 71 | 65 | 71 | 0 (0-10) | 0 (0-10) | 0 (0-10) | 0 (0-10) |
| COc1cc(Oc2nsnc(Cl)c2=O)cc(OC)c1C(C)=O [Compound 61, 3-[(4-acetyl-3,5-dimethoxy)-phenoxy]-5-chloro-4H--1,2,6-thiadiazin-4-one] | 7 | 19 | 59 | 85 | 4 (80-100) | 4 (80-100) | 2 (40-60) | 1 (10-40) |
